Patent publication US7098215B2, “Nitrogenous compounds and antiviral drugs containing the same” (Kureha Chemical Industry Co., Ltd., priority 2000, dated 2006)

What was measured:
[1] = system: ICR male mice; assay: Acute toxicity in ICR mice, intraperitoneal administration; format: in vivo; conditions: 3 per group, 50 mg/kg intraperitoneally, twice a day, for four days, number of dead animals after 5 days
Experimental: Acute toxicity of the antiviral drug was examined. Three groups of 7 week-old, ICR male mice, each group consisting of 3 mice, were bred for one week. The compounds prepared in the Examples, dissolved in a physiological saline solution or distilled water, were intraperitoneally administered at a dose of 50 mg/kg, twice a day, for four days. After 5 days, the number of dead animals was examined.

[2] = system: HIV-1IIIB infected MT-4 cells; assay: Anti-HIV activity: protection of HIV-1IIIB infected MT-4 cells, MTT method; format: cell-based; conditions: MOI 0.01, culture for 5 days, concentration inhibiting 50% of cytotoxicity due to HIV infection
Experimental: HIV-1IIIB infected MT-4 cells were added to 96-well microtiter plates (3.0×10^4/well, MOI (Multiplicity of infection): 0.01), together with test compounds at different concentrations immediately after the infection. After culture for 5 days in a carbon dioxide incubator at 37° C., the number of surviving cells was counted by MTT (tetrazolium) method (Pawels et al., J. Virol. Methods, 20, 309-321, 1988).

[3] = system: HIV-1 (NL4-3); assay: Antiviral effect in SCID mice transplanted with human PBMCs and infected with HIV-1 (NL4-3), HIV-1 p24 by ELISA; format: in vivo; conditions: SCID mice with human PBMCs, virus NL4-3, 0.1 ml/2 mM solution/mouse intraperitoneally, 12 days after infection
Experimental: The effect of the antiviral drug on SCID mice (immunodeficiency mice) was examined.
TMβ-1 (rat anti-mouse IL-2Rβ monoclonal antibody) was intraperitoneally administered to C.B-17 SCID mice (8 weeks-old, female, provided by CLEA Japan, Inc.) in the amount of 1 mg/mouse to exterminate NK cells. After 2 days, 1.5×10^6 human PBMCs were transplanted in the spleen together with human rIL-4 (0.2 μg/mouse). On the same day, the compound No. 86 (0.1 ml/2 mM solution/mouse) or a medium (0.1 ml) (control) was intraperitoneally administered. After 1 day, HIV-1 (NL4-3) (0.2 ml/1×10^4 TCID50/ml) was intraperitoneally administered to cause virus infection. The same amount of the compound No. 86 (or the medium) was intraperitoneally administered on each of 4 consecutive days thereafter. rIL-4 (0.2 μg) was also intraperitoneally administered 4 days after infection. 12 days after infection, blood plasma and abdominal cavity washing solutions were collected to measure the amount of HIV-1 P^24 using an ELISA kit.

SMILES | Dead mouse [1] | EC50 [2] | p24 level Abdominal cavity washing solution [3] | p24 level Plasma [3]
C[C@H](NC(=O)[C@H](CCCNC(=N)N)NC(=O)c1ccc(CNCc2nccn2C)c2ccccc12)c1cccc2ccccc12 [Compound No. 97, N^α-(4-((N-(1-methylimidazole-2-ylmethyl)amino)methyl)naphthalene-1-carbonyl)-L-arginine (1′S)-1′-(1-naphthyl)ethylamide] | 0/3 | – | – | –
C[C@H](NC(=O)[C@H](CCCNC1CCCc2cccnc21)NC(=O)c1ccc(CNCc2nccn2C)cc1)c1cccc2ccccc12 (some centres unmarked) [Compound No. 107] | 0/3 | 35 nM | – | –
O=C(N[C@@H](CCCNC1CCCc2cccnc21)C(=O)NCc1cccc2ccccc12)c1ccc(CNCc2ncc[nH]2)cc1 (stereo partly drawn) [Compound No. 39, (2S)-2-(4-((N-imidazol-2-ylmethyl)aminomethyl)benzoylamino)-5-(5,6,7,8-tetrahydroquinolin-8-ylamino)valeric acid 1-naphthalenemethylamide] | 0/3 | – | – | –
Cn1ccnc1CNCc1ccc(C(=O)N[C@@H](CCCNC2CCCc3cccnc32)C(=O)NCc2cccc3ccccc23)cc1 (stereo partly drawn) [Compound No. 96, (2S)-2-((1-methylimidazol-2-ylmethyl)aminomethyl)benzoylamino-5-(5,6,7,8-tetrahydroquinolyl-8-yl)aminovaleric acid 1-naphthalenemethyleneamide] | 0/3 | 34 nM | – | –
C[C@H](NC(=O)[C@H](CCCNC1CCCc2cccnc21)NC(=O)c1ccc(CNCc2ncc[nH]2)c2ccccc12)c1cccc2ccccc12 (some centres unmarked) [Compound No. 57] | 0/3 | 82 nM | – | –
C[C@H](NC(=O)[C@H](CCCNC1CCCc2cccnc21)NC(=O)c1ccc(CNCc2ncc[nH]2)cc1)c1cccc2ccccc12 (some centres unmarked) [Compound No. 106] | 0/3 | 25 nM | – | –
C[C@H](NC(=O)[C@H](CCCNC(=N)N)NC(=O)c1ccc(CNCc2ncc[nH]2)c2ccccc12)c1cccc2ccccc12 [Compound No. 49, N^α-(4-(imidazol-2-ylmethyl)aminomethylnaphthoyl)-L-arginine(1′S)-(1′-(1-naphthyl)ethyl)amide] | 0/3 | 86 nM | – | –
C[C@H](NC(=O)[C@H](CCCN=C(N)N)NC(=O)c1ccc(CNCc2ccccn2)cc1)c1cccc2ccccc12 [Compound No. 86, N^α-(4-(N-2-picolylaminomethyl)benzoyl)-L-arginine (1′S)-1′-(1-naphthyl)ethylamide] | 0/3 | 43 nM | <5 pg/mL | <5 pg/mL
O=C(N[C@@H](CCCNC1CCCc2cccnc21)C(=O)NCCc1c[nH]c2ccccc12)c1ccc(CNCc2ccccn2)c2ccccc12 (stereo partly drawn) [Compound No. 92, (2S)-2-(4-(N-2-picolylaminomethyl)naphthoyl)amino-5-(5,6,7,8-tetrahydroquinolin-8-yl)aminovaleric acid 2-(3-indolyl)ethylamide] | 0/3 | – | – | –
O=C(N[C@@H](CCCNC1CCCc2cccnc21)C(=O)NCc1cccc2ccccc12)c1ccc(CNCc2ccccn2)cc1 (stereo partly drawn) [Compound No. 65, (2S)-2-(4-(N-2-picolylaminomethyl)benzoylamino)-5-((5,6,7,8-tetrahydroquinolin-8-yl)amino)valeric acid 1-naphthalenemethylamide] | 0/3 | 93 nM | – | –
O=C(N[C@@H](CCCNC1CCCc2cccnc21)C(=O)NCc1cccc2ccccc12)c1ccc(CNC2CCCc3cccnc32)cc1 (stereo partly drawn) [Compound No. 64, (2S)-2-(4-((5,6,7,8-tetrahydroquinolin-8-yl)aminomethyl)benzoylamino)-5-((5,6,7,8-tetrahydroquinolin-8-yl)amino)valeric acid 1-naphthalenemethylamide] | – | 114 nM | – | –
O=C(N[C@@H](CCCNC1CCCc2cccnc21)C(=O)NCc1cccc2ccccc12)c1ccc(CNCc2ncc[nH]2)c2ccccc12 (stereo partly drawn) [Compound No. 41, (2S)-2-(4-((N-imidazol-2-ylmethyl)aminomethyl)naphthoylamino)-5-(5,6,7,8-tetrahydroquinolin-8-ylamino)valeric acid 1-naphthalenemethylamide] | 0/3 | 35 nM | – | –
C[C@H](NC(=O)[C@H](CCCNC1=NCCCN1)NC(=O)c1ccc(CNCc2ncc[nH]2)cc1)c1cccc2ccccc12 [Compound No. 112, (S)-2-(4-((N-imidazol-2-ylmethyl)aminomethyl)benzoyl)amino-5-(3,4,5,6-tetrahydropyrimidine-2-yl)aminovaleric acid (1′S)-1′-(1-naphthyl)ethylamide] | – | 880 nM | – | –
C[C@H](NC(=O)[C@H](CCCNC(=N)N)NC(=O)c1ccc(CNCc2ccccn2)c2ccccc12)c1cccc2ccccc12 [Compound No. 99, N^α-(4-(N-2-picolylaminomethyl)naphthoyl)-L-arginine (1′S)-1′-(1-naphthyl)ethylamide] | 0/3 | – | – | –
N=C(N)NCCC[C@H](NC(=O)c1ccc(CNCc2ccccn2)c2ccccc12)C(=O)NCc1cccc2ccccc12 [Compound No. 44, N^α-(4-(N-2-picolylaminomethyl)naphthoyl)-L-arginine 1-naphthalenemethylamide] | – | 126 nM | – | –
C[C@H](NC(=O)[C@H](CCCNC1CCCc2cccnc21)NC(=O)c1ccc(CNCc2ccccn2)cc1)c1cccc2ccccc12 (stereo partly drawn) [Compound No. 91, (2S)-2-(4-(N-2-picolylaminomethyl)benzoyl)amino-5-(5,6,7,8-tetrahydroquinolin-8-yl)aminovaleric acid (1′S)-1′-(1-naphthyl)ethylamide] | – | 138 nM | – | –
